Experimental data reported in ChEMBL document CHEMBL1201862, “PubChem BioAssay data set” (2004).
Entries after “also recorded” stand apart in the source; their conditions may differ. Calls of active or inactive are those of the source.

Tests used:
[1] = viability loss in Vero cells – cytotoxicity control for Vif-APOBEC3G degradation inhibitor project, dose response (AID 1117358); format: functional; details: Vero
[2] = viability of HCT116 lacking mutant beta-catenin – cell-based, human colon tumor, dose response (AID 1045); format: functional;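 further: HCT116 colon tumor cells with beta catenin knocked out; cells exposed to compound for 60 hours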
[3] = viability loss in THP-1 monocytes – THP-1 cells, cytotoxicity control for Vif-APOBEC3G degradation inhibitor project, dose response (AID 1117359); format: functional; details: THP-1
[4] = decrease of insulin promoter-GFP reporter – imaging, high-content screening, mouse beta cells (AID 1628); format: functional; details: MIN6
[5] = biological target: T1, Histone-lysine N-methyltransferase NSD2 (Homo sapiens, UniProt O96028); format: biochemical
T1 sequence (O96028 whole entry): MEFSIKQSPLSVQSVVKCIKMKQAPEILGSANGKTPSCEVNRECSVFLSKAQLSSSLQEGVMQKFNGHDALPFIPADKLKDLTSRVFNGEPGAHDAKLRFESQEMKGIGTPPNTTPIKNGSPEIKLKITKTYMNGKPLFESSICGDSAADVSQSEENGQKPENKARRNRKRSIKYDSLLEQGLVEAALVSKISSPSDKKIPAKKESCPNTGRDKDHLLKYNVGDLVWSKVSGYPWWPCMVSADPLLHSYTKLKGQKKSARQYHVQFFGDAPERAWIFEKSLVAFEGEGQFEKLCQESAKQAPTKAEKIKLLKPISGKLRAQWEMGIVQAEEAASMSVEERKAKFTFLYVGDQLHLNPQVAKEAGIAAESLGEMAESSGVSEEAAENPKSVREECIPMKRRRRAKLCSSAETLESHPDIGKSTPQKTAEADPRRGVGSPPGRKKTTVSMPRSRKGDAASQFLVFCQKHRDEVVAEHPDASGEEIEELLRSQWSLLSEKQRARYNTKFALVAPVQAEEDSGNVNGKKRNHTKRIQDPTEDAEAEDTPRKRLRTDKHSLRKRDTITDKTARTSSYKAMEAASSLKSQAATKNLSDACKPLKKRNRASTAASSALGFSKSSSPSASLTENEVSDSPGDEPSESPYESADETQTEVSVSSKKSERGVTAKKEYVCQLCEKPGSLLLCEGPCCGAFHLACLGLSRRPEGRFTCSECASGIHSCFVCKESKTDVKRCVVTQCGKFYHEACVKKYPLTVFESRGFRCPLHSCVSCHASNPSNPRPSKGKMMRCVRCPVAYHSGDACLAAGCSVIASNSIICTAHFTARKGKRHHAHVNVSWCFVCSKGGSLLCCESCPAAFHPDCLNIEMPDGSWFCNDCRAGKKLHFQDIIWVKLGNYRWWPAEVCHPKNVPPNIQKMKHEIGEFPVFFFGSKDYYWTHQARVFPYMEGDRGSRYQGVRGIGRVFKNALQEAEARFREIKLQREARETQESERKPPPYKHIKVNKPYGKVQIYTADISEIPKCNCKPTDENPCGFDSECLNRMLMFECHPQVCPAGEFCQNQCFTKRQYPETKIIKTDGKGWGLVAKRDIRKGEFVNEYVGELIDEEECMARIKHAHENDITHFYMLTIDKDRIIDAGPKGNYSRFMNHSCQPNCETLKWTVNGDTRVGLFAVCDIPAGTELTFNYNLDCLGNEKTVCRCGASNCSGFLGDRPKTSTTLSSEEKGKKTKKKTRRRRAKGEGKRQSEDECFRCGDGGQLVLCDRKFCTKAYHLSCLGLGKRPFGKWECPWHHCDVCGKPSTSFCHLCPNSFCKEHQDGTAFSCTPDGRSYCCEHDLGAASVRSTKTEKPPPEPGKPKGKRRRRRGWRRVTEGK

[6] = biological target: T2, Alkaline phosphatase, tissue-nonspecific isozyme (Homo sapiens, UniProt P05186); assay: TNAP enzyme inhibition by screening hits, dose response, selectivity assay for mouse IAP inhibitor project, biochemical, human TNAP, uHTS hits (AID 488906); format: functional
T2 sequence (P05186 whole entry): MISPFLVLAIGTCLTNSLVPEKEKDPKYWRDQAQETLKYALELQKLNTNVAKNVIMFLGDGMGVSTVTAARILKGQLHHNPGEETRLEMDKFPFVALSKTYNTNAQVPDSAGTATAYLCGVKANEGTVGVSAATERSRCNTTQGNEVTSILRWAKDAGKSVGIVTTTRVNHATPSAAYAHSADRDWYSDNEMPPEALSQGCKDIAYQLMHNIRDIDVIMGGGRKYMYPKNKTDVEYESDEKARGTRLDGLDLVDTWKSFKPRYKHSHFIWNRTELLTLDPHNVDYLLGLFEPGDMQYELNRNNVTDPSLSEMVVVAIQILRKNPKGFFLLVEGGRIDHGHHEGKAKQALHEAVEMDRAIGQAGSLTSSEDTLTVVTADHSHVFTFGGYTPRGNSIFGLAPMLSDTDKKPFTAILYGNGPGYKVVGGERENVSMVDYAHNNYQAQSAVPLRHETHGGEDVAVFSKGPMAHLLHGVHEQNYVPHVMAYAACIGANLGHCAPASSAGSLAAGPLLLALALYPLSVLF

[7] = MIN6 cell viability loss – mouse insulinoma, cytotoxicity control, dose response (AID 2122); format: functional;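 further: confirmatory high-throughput counterscreen run to flag cytotoxic compounds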
[8] = biological target: Intestinal-type alkaline phosphatase (Homo sapiens, UniProt P09923); assay: inhibition of human intestinal alkaline phosphatase – biochemical, dose response (AID 488876); format: functional
Intestinal-type alkaline phosphatase (Homo sapiens, UniProt P09923), sequence (P09923 whole entry): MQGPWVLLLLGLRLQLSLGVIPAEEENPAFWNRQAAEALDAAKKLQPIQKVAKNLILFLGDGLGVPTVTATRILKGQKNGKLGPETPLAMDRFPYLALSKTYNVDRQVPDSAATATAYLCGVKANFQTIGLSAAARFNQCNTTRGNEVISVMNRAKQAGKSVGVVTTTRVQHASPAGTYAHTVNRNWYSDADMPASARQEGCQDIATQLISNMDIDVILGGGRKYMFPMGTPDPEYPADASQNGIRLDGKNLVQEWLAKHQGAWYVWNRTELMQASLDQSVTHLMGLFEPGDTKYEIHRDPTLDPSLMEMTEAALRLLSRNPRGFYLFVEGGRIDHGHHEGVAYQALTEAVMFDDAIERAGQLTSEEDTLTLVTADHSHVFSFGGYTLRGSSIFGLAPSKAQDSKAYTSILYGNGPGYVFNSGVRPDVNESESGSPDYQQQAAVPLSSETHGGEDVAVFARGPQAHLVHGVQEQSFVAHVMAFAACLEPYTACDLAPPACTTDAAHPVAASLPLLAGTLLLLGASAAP

[9] = biological target: Intestinal-type alkaline phosphatase (Mus musculus, UniProt P24822); assay: PubChem AID 488785; format: functional
Intestinal-type alkaline phosphatase (Mus musculus, UniProt P24822), sequence (P24822 whole entry): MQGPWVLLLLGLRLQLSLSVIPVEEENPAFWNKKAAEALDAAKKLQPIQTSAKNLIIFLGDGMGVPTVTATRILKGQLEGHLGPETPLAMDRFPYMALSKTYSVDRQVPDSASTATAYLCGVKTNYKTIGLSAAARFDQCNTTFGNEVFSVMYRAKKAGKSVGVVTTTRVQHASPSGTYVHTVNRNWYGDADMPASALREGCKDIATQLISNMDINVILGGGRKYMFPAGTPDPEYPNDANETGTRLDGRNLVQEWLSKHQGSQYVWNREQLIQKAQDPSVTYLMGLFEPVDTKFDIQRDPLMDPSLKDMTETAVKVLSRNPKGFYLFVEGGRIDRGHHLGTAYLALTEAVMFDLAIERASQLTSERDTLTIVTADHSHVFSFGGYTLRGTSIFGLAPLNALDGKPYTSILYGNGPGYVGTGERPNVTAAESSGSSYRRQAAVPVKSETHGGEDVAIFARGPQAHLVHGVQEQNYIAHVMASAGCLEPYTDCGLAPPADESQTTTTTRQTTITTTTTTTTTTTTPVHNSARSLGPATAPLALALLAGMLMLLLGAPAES

[10] = HIV-1 Vif–A3G interaction blockers – biochemical, TR-FRET, GST-Vif 1-94, biotin-A3G peptide, dose response retest, primary screen (AID 1117319); format: functional;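 further: TR-FRET signal of purified GST-Vif binding a biotinylated A3G peptide; inhibitors lower the FRET signal by blocking Vif and A3G binding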
[11] = viability of PTEN-deleted HCT116 cells – cell-based, HCT116 PTEN knockout, dose response (AID 1047); format: functional;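 further: HCT116 colon tumor cells with PTEN knocked out; cells exposed to compound for 60 hours before readout; potency for loss of cell viability measured by luminescence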
[12] = suppression of NO production in INS-1E cells – cell-based, Griess absorbance, dry powder, set 3, dose response (AID 488870); format: functional; details: Rattus norvegicus
[13] = biological target: T3, Apoptotic protease-activating factor 1 (Homo sapiens, UniProt O14727); assay: activation of Apaf-1 mediated apoptosis – fluorescent, uHTS hits, dose response (AID 588554); format: functional
T3 sequence (O14727 whole entry): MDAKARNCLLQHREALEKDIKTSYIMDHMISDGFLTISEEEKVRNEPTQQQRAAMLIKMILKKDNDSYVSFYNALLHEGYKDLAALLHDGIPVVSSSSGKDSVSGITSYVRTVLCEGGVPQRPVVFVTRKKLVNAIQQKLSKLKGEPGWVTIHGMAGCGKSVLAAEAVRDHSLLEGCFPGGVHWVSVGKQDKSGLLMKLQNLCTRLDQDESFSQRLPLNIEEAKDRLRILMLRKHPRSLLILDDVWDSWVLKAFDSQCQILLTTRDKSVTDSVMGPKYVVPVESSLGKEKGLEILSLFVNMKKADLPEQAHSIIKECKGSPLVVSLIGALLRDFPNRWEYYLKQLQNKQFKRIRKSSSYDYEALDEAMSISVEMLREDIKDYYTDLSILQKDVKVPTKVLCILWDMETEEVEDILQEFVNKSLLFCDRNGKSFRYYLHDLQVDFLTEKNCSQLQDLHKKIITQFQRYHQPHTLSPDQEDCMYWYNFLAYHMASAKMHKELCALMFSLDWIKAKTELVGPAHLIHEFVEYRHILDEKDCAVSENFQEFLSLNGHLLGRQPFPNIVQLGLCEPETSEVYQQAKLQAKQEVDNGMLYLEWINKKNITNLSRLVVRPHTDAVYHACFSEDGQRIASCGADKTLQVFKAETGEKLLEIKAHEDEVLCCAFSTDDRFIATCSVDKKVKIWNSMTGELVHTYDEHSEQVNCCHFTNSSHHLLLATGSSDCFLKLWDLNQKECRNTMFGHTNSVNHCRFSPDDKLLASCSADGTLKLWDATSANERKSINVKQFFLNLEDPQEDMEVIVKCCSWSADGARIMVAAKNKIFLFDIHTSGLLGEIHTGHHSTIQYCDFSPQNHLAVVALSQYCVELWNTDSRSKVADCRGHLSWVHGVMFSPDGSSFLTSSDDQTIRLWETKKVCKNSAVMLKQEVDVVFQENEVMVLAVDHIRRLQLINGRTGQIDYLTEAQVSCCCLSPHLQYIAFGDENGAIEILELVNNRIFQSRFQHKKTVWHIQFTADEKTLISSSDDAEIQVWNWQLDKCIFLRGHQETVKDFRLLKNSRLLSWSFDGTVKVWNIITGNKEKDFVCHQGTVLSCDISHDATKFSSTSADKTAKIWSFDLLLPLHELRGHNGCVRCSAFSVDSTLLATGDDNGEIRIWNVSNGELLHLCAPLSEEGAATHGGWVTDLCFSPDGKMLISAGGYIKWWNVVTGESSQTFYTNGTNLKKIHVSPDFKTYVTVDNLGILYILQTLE

[14] = biological target: T4, Small ubiquitin-related modifier 1 (Homo sapiens, UniProt P63165); assay: SUMO1 protein-protein binding blockers, potency – biochemical, FRET, dose response (AID 624383); format: functional; details: read-out: IC50_Mean
T4 sequence (P63165 whole entry): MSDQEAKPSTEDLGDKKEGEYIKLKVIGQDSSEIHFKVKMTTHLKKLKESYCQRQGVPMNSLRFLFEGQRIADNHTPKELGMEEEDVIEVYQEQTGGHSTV

[15] = biological target: T4, Small ubiquitin-related modifier 1; assay: SUMO1 protein interaction blockers, potency – biochemical, fluorescence polarization, uHTS hits, dose response (AID 624382); format: functional; details: read-out: IC50_Mean
[16] = biological target: 1-phosphatidylinositol 4,5-bisphosphate phosphodiesterase gamma-1 (Homo sapiens, UniProt P19174); assay: Counterscreen for inhibitors of phospholipase C isozymes (PLC-B3): Fluorescence-based biochemical high throughput dose response assay to identify inhibitors of phospholipase C isozymes (PLC-gamma1).
1-phosphatidylinositol 4,5-bisphosphate phosphodiesterase gamma-1, sequence (P19174 whole entry): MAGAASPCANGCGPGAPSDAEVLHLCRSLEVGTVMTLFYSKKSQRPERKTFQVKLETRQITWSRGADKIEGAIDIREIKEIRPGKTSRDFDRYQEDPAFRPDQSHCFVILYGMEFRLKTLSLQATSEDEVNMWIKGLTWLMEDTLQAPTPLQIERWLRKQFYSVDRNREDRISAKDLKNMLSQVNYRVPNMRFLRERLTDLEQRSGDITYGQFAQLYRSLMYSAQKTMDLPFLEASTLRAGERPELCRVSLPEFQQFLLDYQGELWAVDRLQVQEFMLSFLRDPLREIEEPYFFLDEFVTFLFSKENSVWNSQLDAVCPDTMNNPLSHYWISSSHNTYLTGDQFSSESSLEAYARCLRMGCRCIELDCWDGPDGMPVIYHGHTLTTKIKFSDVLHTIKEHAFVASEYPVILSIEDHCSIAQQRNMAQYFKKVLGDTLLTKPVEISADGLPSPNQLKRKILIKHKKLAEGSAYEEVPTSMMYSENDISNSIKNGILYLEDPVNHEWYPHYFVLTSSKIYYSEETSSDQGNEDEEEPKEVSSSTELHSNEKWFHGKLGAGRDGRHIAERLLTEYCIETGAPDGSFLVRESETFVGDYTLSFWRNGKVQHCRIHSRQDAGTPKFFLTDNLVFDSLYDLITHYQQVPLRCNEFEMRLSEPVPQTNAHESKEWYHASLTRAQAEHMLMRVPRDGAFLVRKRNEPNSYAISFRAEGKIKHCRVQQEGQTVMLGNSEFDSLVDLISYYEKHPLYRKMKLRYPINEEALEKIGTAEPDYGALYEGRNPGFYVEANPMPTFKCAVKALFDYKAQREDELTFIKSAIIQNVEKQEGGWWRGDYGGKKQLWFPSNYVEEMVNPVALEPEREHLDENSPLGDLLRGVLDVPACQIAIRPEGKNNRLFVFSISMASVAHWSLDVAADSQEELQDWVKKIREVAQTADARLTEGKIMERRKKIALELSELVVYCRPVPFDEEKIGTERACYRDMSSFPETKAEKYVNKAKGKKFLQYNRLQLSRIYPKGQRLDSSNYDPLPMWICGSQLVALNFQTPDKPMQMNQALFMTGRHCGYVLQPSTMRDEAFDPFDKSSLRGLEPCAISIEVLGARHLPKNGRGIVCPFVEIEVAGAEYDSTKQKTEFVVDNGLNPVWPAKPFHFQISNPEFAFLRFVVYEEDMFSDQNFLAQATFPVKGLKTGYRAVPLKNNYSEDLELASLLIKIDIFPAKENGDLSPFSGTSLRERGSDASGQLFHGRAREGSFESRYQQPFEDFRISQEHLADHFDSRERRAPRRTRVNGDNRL

[17] = biological target: NAD-dependent protein deacylase sirtuin-5, mitochondrial (Homo sapiens, UniProt Q9NXA8); assay: sirtuin-5 deacylation blockers, concentration series – biochemical, fluorescence imaging, cherry-pick, set 5, dose response (AID 720591);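 further: desuccinylation of succinyl peptide AMC substrate read as fluorescence after trypsin release; potency of inhibitors that lower fluorescence and may act on trypsin instead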
NAD-dependent protein deacylase sirtuin-5, mitochondrial, sequence (Q9NXA8 whole entry): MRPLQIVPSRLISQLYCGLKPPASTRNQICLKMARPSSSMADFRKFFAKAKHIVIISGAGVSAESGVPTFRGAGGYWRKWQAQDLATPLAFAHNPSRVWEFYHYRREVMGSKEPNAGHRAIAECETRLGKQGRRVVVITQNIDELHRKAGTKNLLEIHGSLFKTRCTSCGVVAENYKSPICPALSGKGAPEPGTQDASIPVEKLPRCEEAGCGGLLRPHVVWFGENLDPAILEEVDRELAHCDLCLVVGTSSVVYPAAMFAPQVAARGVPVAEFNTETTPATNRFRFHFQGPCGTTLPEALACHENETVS

[18] = biological target: 1-phosphatidylinositol 4,5-bisphosphate phosphodiesterase beta-3 (Homo sapiens, UniProt Q01970); assay: Fluorescence-based biochemical high throughput dose response assay to identify inhibitors of phospholipase C isozymes (PLC-B3).
1-phosphatidylinositol 4,5-bisphosphate phosphodiesterase beta-3, sequence (Q01970 whole entry): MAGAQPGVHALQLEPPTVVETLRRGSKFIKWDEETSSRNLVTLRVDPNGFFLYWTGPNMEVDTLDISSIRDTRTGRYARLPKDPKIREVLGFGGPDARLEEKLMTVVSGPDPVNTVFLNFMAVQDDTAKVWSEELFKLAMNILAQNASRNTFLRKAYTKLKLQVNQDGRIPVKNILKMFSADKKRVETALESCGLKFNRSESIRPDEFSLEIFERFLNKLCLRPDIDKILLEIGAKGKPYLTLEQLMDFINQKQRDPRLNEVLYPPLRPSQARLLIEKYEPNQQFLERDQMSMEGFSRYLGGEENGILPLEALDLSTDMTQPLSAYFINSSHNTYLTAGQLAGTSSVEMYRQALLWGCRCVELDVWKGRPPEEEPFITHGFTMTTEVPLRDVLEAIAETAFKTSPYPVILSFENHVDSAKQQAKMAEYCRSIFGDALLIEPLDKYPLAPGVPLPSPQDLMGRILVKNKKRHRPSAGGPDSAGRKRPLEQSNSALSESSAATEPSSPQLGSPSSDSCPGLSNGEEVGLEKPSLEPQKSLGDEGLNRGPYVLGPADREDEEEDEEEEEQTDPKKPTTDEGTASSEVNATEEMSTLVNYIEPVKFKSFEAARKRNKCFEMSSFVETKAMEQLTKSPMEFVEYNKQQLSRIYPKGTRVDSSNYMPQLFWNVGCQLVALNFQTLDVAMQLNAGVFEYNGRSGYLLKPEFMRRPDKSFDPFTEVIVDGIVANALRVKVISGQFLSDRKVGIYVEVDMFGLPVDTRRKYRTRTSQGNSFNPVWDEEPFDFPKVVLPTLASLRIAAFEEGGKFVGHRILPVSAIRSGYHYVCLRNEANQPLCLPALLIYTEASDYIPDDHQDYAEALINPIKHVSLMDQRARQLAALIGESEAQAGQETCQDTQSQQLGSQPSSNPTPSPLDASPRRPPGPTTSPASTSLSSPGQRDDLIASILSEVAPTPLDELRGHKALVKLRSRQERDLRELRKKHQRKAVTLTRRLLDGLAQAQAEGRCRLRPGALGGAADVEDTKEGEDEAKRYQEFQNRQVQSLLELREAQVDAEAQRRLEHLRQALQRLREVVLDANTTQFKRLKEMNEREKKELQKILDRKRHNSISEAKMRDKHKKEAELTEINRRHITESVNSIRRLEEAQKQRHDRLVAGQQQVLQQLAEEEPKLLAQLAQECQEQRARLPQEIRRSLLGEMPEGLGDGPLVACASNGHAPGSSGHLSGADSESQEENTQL

Cytochrome P450 2D6 = Cytochrome P450 2D6 (Homo sapiens, UniProt P10635);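 further: CYP2D6 member of a cytochrome P450 panel assay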
Cytochrome P450 2D6, sequence (P10635 whole entry): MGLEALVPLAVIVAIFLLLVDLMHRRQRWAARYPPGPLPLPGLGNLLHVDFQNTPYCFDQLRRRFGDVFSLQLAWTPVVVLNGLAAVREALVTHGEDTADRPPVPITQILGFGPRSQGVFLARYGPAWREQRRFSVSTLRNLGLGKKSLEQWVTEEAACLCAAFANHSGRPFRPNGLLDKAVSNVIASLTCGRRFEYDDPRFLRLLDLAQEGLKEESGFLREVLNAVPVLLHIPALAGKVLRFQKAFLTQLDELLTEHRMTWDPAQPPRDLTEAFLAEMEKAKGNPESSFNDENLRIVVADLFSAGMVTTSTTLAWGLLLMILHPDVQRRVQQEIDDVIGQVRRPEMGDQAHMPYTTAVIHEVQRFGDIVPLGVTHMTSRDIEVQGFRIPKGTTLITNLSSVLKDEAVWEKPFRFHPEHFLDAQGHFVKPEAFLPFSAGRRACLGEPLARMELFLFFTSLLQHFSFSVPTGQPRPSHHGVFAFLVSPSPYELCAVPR

Cytochrome P450 2C19 = Cytochrome P450 2C19 (Homo sapiens, UniProt P33261); assay: Cytochrome panel assay with activity outcomes. Panel member name: p450-cyp2c19 Compounds with AC50 equal or less than 10 uM are considered active; format: functional
Cytochrome P450 2C19, sequence (P33261 whole entry): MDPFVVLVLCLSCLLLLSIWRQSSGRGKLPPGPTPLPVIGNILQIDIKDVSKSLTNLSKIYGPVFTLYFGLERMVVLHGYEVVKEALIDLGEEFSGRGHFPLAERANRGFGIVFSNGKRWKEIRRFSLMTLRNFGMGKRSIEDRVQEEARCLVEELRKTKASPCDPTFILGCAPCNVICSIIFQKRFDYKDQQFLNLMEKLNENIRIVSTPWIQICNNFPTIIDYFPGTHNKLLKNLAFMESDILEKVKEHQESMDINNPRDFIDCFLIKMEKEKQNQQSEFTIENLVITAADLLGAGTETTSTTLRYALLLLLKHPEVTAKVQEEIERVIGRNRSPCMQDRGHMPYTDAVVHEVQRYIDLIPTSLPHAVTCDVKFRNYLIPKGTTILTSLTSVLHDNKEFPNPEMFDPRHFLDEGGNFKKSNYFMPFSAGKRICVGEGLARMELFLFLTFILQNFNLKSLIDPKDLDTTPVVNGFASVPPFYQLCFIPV

Cytochrome P450 1A2 = biological target: T5, Cytochrome P450 1A2 (Homo sapiens, UniProt P05177);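 further: PubChem cytochrome P450 panel assay, CYP1A2 panel member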
T5 sequence (P05177 whole entry): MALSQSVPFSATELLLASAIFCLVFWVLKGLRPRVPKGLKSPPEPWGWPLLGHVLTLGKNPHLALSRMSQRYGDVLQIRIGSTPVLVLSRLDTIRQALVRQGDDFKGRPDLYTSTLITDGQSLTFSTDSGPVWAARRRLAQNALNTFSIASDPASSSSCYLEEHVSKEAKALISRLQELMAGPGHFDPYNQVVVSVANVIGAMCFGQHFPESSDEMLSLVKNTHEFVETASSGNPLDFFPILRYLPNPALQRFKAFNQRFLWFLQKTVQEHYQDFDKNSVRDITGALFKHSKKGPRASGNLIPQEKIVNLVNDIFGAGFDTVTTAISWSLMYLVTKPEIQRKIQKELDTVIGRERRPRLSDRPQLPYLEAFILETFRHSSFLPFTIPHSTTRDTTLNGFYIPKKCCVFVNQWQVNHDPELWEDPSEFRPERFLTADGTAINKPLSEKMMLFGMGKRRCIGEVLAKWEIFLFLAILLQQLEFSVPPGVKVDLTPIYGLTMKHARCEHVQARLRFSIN

Cc1cccnc1Nc1nc(-c2ccc(O)c(O)c2)cs1
CC50 [1]: > 40 µM (active) | EC50 [2]: 13.6 µM (active) | CC50 [3]: 21.2 µM (active) | IC50 [4]: 8.95 µM (active) | AC50 [5]: > 20 µM (inactive) | IC50 [6]: > 100 µM (inactive) | IC50 [7]: 9.5 µM (active) | IC50 [8]: > 100 µM (inactive) | IC50 [9]: 4.03 µM (active) | IC50 [10]: > 51.1 µM (active) | EC50 [11]: 13.3 µM (active)

C[C@@H]1CN([C@@H](C)CO)C(=O)c2cccc(NC(=O)Nc3cccc4ccccc34)c2O[C@H]1CN(C)C(=O)Nc1ccc(C(F)(F)F)cc1
AC50 [12]: 40.7 µM (active)

C=CC1=C(C(=O)O)N2C(=O)[C@@H](NC(=O)/C(=N\OCC(=O)O)c3csc(N)n3)[C@H]2SC1 [CEFIXIME]
EC50 [13]: 9.08 µM (active) | IC50 [14]: 1.48 µM (active) | IC50 [15]: > 66.6 µM (inactive) | IC50 [16]: 1.21 µM (active) | AC50 [17]: 17.9 µM (active) | IC50 [18]: > 122 µM (inactive)

Nc1ccc(S(=O)(=O)Nc2ccnn2-c2ccccc2)cc1 [SULFAPHENAZOLE]
AC50 (Cytochrome P450 2D6): inactive | AC50 (Cytochrome P450 2C19): inactive; also recorded: inconclusive | AC50 (Cytochrome P450 1A2): inactive
